Patent publication US10688086B2, “Method for treating cancer with dihydropyridine calcium antagonist” (GERMARK BIOTECHNOLOGY CO., LTD, priority 2016, dated 2020)

How the values were obtained:
[1] = tested on: patients having bladder cancer; assay: NHIRD statistical analysis of death/survival with vs without Amlodipine, bladder cancer; assay type: in vivo, human
[2] = tested on: Hep3B cells; assay: Cell viability (WST-1 72 hrs; PI flow cytometry 48 hrs), Hep3B; assay type: cell-based
Procedure: (§1) Two liver cancer cell lines HepG2 and Hep3B were cultured. The medium used for the culture of the cells was DMEM medium containing 10% fetal bovine serum, 10,000 U/ml penicillin and 10,000 μg/ml streptomycin. The culture occurred in an environment at 37° C. with 5% CO2, and the medium was changed every 2-3 days during the culture. After the cells were cultured to about 70% confluence, they were treated with various concentrations of Amlodipine: 0, 1.5625, 3.125, 6.25, 12.5, 25, and 50 μM for various times: 48, and 72 hrs. After the experiment, the viability of each liver cancer cell line was observed and the cell viability and cell cycle were analyzed. The HepG2 and Hep3B cells treated with various concentrations of Amlodipine for 72 hrs were added to WST-1 reagent. After 330 minutes of reaction, the absorbance at a wavelength of 420-480 nm was measured. The HepG2 and Hep3B cells treated with various concentrations of Amlodipine for 48 hrs were scraped off with 0.05% Trypsin-EDTA, and then added to 2 mg/ml PI solution. The cell viability was analyzed by flow cytometry.

[3] = tested on: HepG2 cells; assay: Cell viability (WST-1 72 hrs; PI flow cytometry 48 hrs), HepG2; assay type: cell-based
Procedure: as §1

[4] = tested on: liver cancer cells Hep3B; assay: Cell cycle analysis by flow cytometry, Hep3B; assay type: cell-based
Procedure: (§2) Two liver cancer cell lines HepG2 and Hep3B were cultured. The medium used for the culture of the cells was DMEM medium containing 10% fetal bovine serum, 10,000 U/ml penicillin and 10,000 μg/ml streptomycin. The culture occurred in an environment at 37° C. with 5% CO2, and the medium was changed every 2-3 days during the culture. After the cells were cultured to about 70% confluence, they were treated with various concentrations of Amlodipine: 0, 1.5625, 3.125, 6.25, 12.5, 25, and 50 μM for various times: 48, and 72 hrs. After the experiment, the viability of each liver cancer cell line was observed and the cell viability and cell cycle were analyzed. The cell cycle of each liver cancer cell line treated under different conditions was analyzed by flow cytometry. […] Still further, each liver cancer cell line was treated with Amlodipine at a concentration of 12.5 μM for 0, 12, 24, 36 and 48 hrs, and the cell cycle was analyzed by flow cytometry.

[5] = tested on: liver cancer cells HepG2; assay: Cell cycle analysis by flow cytometry, HepG2; assay type: cell-based
Procedure: as §2

[6] = tested on: patients having liver cancer; assay: NHIRD statistical analysis of death/survival with vs without Amlodipine, liver cancer; assay type: in vivo, human
[7] = tested on: Hep3B cells; assay: Cell invasion (Transwell, crystal violet), Hep3B; assay type: cell-based; conditions: 10 μM, 72 hrs
Procedure: (§3) The HepG2 and Hep3B cells were separately cultured in the insert of the Transwell plate, then added with 10 μM Amlodipine and cultured for 48 or 72 hrs. The cells on the inner surface of the insert were taken out, and the insert was placed in methanol and stained with a crystal violet solution. […] That is, Amlodipine is effective in slowing the progression of cancers, thereby achieving a therapeutic effect in the treatment of cancers.

[8] = tested on: cancer patients; assay: NHIRD statistical analysis, cancer patients overall; assay type: in vivo, human
Procedure: In this example, statistical analysis was performed on the statistics of the effects of Amlodipine in the treatment of cancers, using data from the National Health Insurance Research Database (NHIRD) covering detailed healthcare data for the population in Taiwan. Then, the diagnostic data at the time of admission in the database and the database of patients with registered major injuries were used, and statistical analysis was performed using data from patients with gastric cancer.
The dose of Amlodipine used in Example 1 was at least 120 mg/30 days. Therefore, in order to obtain the minimum effective dose, the survival rate of patients treated with Amlodipine for days in 90 days after cancer diagnosis was further statistically analyzed.

[9] = tested on: HepG2 cells; assay: Cell invasion (Transwell, crystal violet), HepG2; assay type: cell-based; conditions: 10 μM, 72 hrs
Procedure: as §3

[10] = 24/30: Amlodipine at least 24 days within 30 days after cancer diagnosis
[11] = 48/60: Amlodipine at least 48 days within 60 days after cancer diagnosis
[12] = 72/90: Amlodipine at least 72 days within 90 days after cancer diagnosis
[13] = Amlodipine for 20 days within 90 days after diagnosis
[14] = 12.5 μM Amlodipine, treatment time 12 hr
[15] = 12.5 μM Amlodipine, treatment time 24 hr
[16] = 12.5 μM Amlodipine, treatment time 36 hr
[17] = 12.5 μM Amlodipine, treatment time 48 hr

With `CCOC(=O)C1=C(COCCN)NC(C)=C(C(=O)OC)C1c1ccccc1Cl` (stereo not drawn) [Amlodipine] the “Crude HR HRs (95% C.I.)” value [1, 10] was 0.54 (0.50-0.59), the “Crude HR HRs (95% C.I.)” value [1, 11] was 0.55 (0.50-0.60) and the “Crude HR HRs (95% C.I.)” value [1, 12] was 0.55 (0.50-0.61). For the same compound, the “Crude HR HRs (95% C.I.)” value [1, 13] was 0.82 (0.75-0.90), the “Amlodipine concentration at which the best inhibitory effect on the growth of liver cancer cells is achieved” value [2] was “greater than or equal to 12.5 μM” and the “cell viability of liver cancer cells treated with Amlodipine” value ([2]; 1.5625-50 μM, 48 and 72 hrs, FIGS. 10, 13-15) was “decreased”. For the same compound, the “Amlodipine concentration at which the best inhibitory effect on the growth of liver cancer cells is achieved” value [3] was “greater than or equal to 12.5 μM”, the “cell viability of liver cancer cells treated with Amlodipine” value ([3]; 1.5625-50 μM, 48 and 72 hrs, FIGS. 9, 11, 12) was “decreased” and the “Proportion of cell distribution in cell cycle (%) M1:” value (“Proportion … (%) M1:” for short) ([4]; 1.5625 μM Amlodipine, 48 hrs) was 5.34%. For the same compound, the “Proportion of cell distribution in cell cycle (%) M2:” value (“Proportion … (%) M2:” for short) ([4]; 1.5625 μM Amlodipine, 48 hrs) was 74.88%, the “Proportion of cell distribution in cell cycle (%) M3:” value (“Proportion … (%) M3:” for short) ([4]; 1.5625 μM Amlodipine, 48 hrs) was 7.06% and the “Proportion of cell distribution in cell cycle (%) M4:” value (“Proportion … (%) M4:” for short) ([4]; 1.5625 μM Amlodipine, 48 hrs) was 12.82%. For the same compound, the “Proportion … (%) M1:” value ([4]; 3.125 μM Amlodipine, 48 hrs) was 6.51%, the “Proportion … (%) M2:” value ([4]; 3.125 μM Amlodipine, 48 hrs) was 73.83% and the “Proportion … (%) M3:” value ([4]; 3.125 μM Amlodipine, 48 hrs) was 6.63%. The “Proportion … (%) M4:” value ([4]; 3.125 μM Amlodipine, 48 hrs) was 13.17%, the “Proportion … (%) M1:” value ([4]; 6.25 μM Amlodipine, 48 hrs) was 6.48% and the “Proportion … (%) M2:” value ([4]; 6.25 μM Amlodipine, 48 hrs) was 72.91%. For the same compound, the “Proportion … (%) M3:” value ([4]; 6.25 μM Amlodipine, 48 hrs) was 6.74%, the “Proportion … (%) M4:” value ([4]; 6.25 μM Amlodipine, 48 hrs) was 13.93% and the “Proportion … (%) M1:” value ([4]; 12.5 μM Amlodipine, 48 hrs) was 16.96%. For the same compound, the “Proportion … (%) M2:” value ([4]; 12.5 μM Amlodipine, 48 hrs) was 67.77%, the “Proportion … (%) M3:” value ([4]; 12.5 μM Amlodipine, 48 hrs) was 6.58% and the “Proportion … (%) M4:” value ([4]; 12.5 μM Amlodipine, 48 hrs) was 8.83%. For the same compound, the “Proportion … (%) M1:” value [4, 14] was 24.89%, the “Proportion … (%) M2:” value [4, 14] was 62.89% and the “Proportion … (%) M3:” value [4, 14] was 4.22%. The “Proportion … (%) M4:” value [4, 14] was 8.08%, the “Proportion … (%) M1:” value [4, 15] was 30.77% and the “Proportion … (%) M2:” value [4, 15] was 56.25%. For the same compound, the “Proportion … (%) M3:” value [4, 15] was 5.46%, the “Proportion … (%) M4:” value [4, 15] was 7.55% and the “Proportion … (%) M1:” value [4, 16] was 39.90%. For the same compound, the “Proportion … (%) M2:” value [4, 16] was 47.73%, the “Proportion … (%) M3:” value [4, 16] was 5.03% and the “Proportion … (%) M4:” value [4, 16] was 7.47%. For the same compound, the “Proportion … (%) M1:” value [4, 17] was 56.61%, the “Proportion … (%) M2:” value [4, 17] was 29.59% and the “Proportion … (%) M3:” value [4, 17] was 7.08%. For the same compound, the “Proportion … (%) M4:” value [4, 17] was 6.82%, the “cell division (cell cycle, in words)” value ([4]; 12.5 μM or more, 48 hrs) was “most cells were unable to undergo cell division” and the “Proportion … (%) M1:” value ([4]; 25 μM Amlodipine, 48 hrs) was 57.32%. The “Proportion … (%) M2:” value ([4]; 25 μM Amlodipine, 48 hrs) was 28.75%, the “Proportion … (%) M3:” value ([4]; 25 μM Amlodipine, 48 hrs) was 8.02% and the “Proportion … (%) M4:” value ([4]; 25 μM Amlodipine, 48 hrs) was 6.10%. The “Proportion … (%) M1:” value ([5]; 1.5625 μM Amlodipine, 48 hrs) was 1.58%, the “Proportion … (%) M2:” value ([5]; 1.5625 μM Amlodipine, 48 hrs) was 70.28% and the “Proportion … (%) M3:” value ([5]; 1.5625 μM Amlodipine, 48 hrs) was 8.89%. For the same compound, the “Proportion … (%) M4:” value ([5]; 1.5625 μM Amlodipine, 48 hrs) was 19.34%, the “Proportion … (%) M1:” value ([5]; 3.125 μM Amlodipine, 48 hrs) was 1.36% and the “Proportion … (%) M2:” value ([5]; 3.125 μM Amlodipine, 48 hrs) was 69.60%. The “Proportion … (%) M3:” value ([5]; 3.125 μM Amlodipine, 48 hrs) was 8.91%, the “Proportion … (%) M4:” value ([5]; 3.125 μM Amlodipine, 48 hrs) was 20.23% and the “Proportion … (%) M1:” value ([5]; 6.25 μM Amlodipine, 48 hrs) was 1.91%. The “Proportion … (%) M2:” value ([5]; 6.25 μM Amlodipine, 48 hrs) was 66.92%, the “Proportion … (%) M3:” value ([5]; 6.25 μM Amlodipine, 48 hrs) was 10.28% and the “Proportion … (%) M4:” value ([5]; 6.25 μM Amlodipine, 48 hrs) was 21.01%. The “Proportion … (%) M1:” value ([5]; 12.5 μM Amlodipine, 48 hrs) was 81.27%, the “Proportion … (%) M2:” value ([5]; 12.5 μM Amlodipine, 48 hrs) was 12.49% and the “Proportion … (%) M3:” value ([5]; 12.5 μM Amlodipine, 48 hrs) was 3.31%. The “Proportion … (%) M4:” value ([5]; 12.5 μM Amlodipine, 48 hrs) was 2.95%, the “Proportion … (%) M1:” value [5, 14] was 5.01% and the “Proportion … (%) M2:” value [5, 14] was 76.16%. The “Proportion … (%) M3:” value [5, 14] was 6.10%, the “Proportion … (%) M4:” value [5, 14] was 12.87% and the “Proportion … (%) M1:” value [5, 15] was 16.20%. For the same compound, the “Proportion … (%) M2:” value [5, 15] was 65.01%, the “Proportion … (%) M3:” value [5, 15] was 6.24% and the “Proportion … (%) M4:” value [5, 15] was 12.69%. For the same compound, the “Proportion … (%) M1:” value [5, 16] was 65.46%, the “Proportion … (%) M2:” value [5, 16] was 22.64% and the “Proportion … (%) M3:” value [5, 16] was 4.81%. The “Proportion … (%) M4:” value [5, 16] was 7.22%, the “Proportion … (%) M1:” value [5, 17] was 83.26% and the “Proportion … (%) M2:” value [5, 17] was 11.13%. The “Proportion … (%) M3:” value [5, 17] was 1.73%, the “Proportion … (%) M4:” value [5, 17] was 3.93% and the “cell division (cell cycle, in words)” value ([5]; 12.5 μM or more, 48 hrs) was “most cells were unable to undergo cell division”. For the same compound, the “Proportion … (%) M1:” value ([5]; 25 μM Amlodipine, 48 hrs) was 99.75%, the “Proportion … (%) M2:” value ([5]; 25 μM Amlodipine, 48 hrs) was 0.22% and the “Proportion … (%) M3:” value ([5]; 25 μM Amlodipine, 48 hrs) was 0.00%. The “Proportion … (%) M4:” value ([5]; 25 μM Amlodipine, 48 hrs) was 0.94%, the “Crude HR HRs (95% C.I.)” value [6, 10] was 0.55 (0.53-0.59) and the “Crude HR HRs (95% C.I.)” value [6, 11] was 0.54 (0.51-0.57). The “Crude HR HRs (95% C.I.)” value [6, 12] was 0.55 (0.52-0.58), the “Crude HR HRs (95% C.I.)” value [6, 13] was 0.73 (0.69-0.77) and the “fluorescence intensity (cell invasion) vs cells not treated with Amlodipine” value [7] was “lower”. The “mortality of cancer patients (in words)” value ([8]; Table 1, at least 120 mg/30 days) was “effectively reduce the mortality of cancer patients”, the “survival rate of cancer patients (in words)” value ([8]; Table 2, FIGS. 1-8, 100 mg in 90 days, follow-up 3 years, vs no Amlodipine) was “increase the survival rate of cancer patients” and the “cell invasion (crystal violet staining)” value [9] was “lower”.
